Reference: ChEMBL document CHEMBL3132797, “Synthesis and biological evaluation of substituted N-alkylphenyl-3,5-dinitrobenzamide analogs as anti-TB agents” (Medchemcomm, 2014)
Converted amounts (≈) assume the structure as drawn.

Legend:
[1] = test system: Mycobacterium tuberculosis; test: Antimycobacterial activity against Mycobacterium tuberculosis H37Rv ATCC 27294 by broth dilution method; type: functional
[2] = Selectivity index, ratio of IC50 for mouse J774 cells to MIC for Mycobacterium tuberculosis H37Rv ATCC 27294; type: toxicity, cell-based; conditions: read-out: Selectivity Index
J774 [3] = test: Cytotoxicity against mouse J774 cells after 24 hrs by MTT assay; type: cell-based; conditions: J774, 24 h
[4] = test system: Mycobacterium tuberculosis; test: Antimycobacterial activity against Mycobacterium tuberculosis H37Rv ATCC 27294 infected in mouse J774 cells assessed as intracellular killing after 48 hrs by colony formation assay; type: functional; conditions: H37Rv ATCC 27294, 48 h
[5] = test system: Mycobacterium tuberculosis; test: Bactericidal activity against Mycobacterium tuberculosis H37Rv ATCC 27294 by broth dilution method; type: functional
J774 [6] = test: Cytotoxicity against mouse J774 cells at 20 ug/ml after 24 hrs by MTT assay; type: cell-based; conditions: j774, 24 h

Compound	MIC [1] [µM]	other results
Cc1ccc(CNC(=O)c2cc([N+](=O)[O-])c(C)c([N+](=O)[O-])c2)cc1	0.09 (≈ 0.0296 µg/mL)	
CCCCC[C@@H](C)NC(=O)c1cc([N+](=O)[O-])cc([N+](=O)[O-])c1	1.62 (≈ 0.501 µg/mL)	
Cc1ccc(C(C)NC(=O)c2cc([N+](=O)[O-])c(C)c([N+](=O)[O-])c2)cc1 (racemic)	< 0.17	selectivity ratio [2]: > 1330; IC50 (J774 [3]): > 58.2 µM; MIC [4]: 0.72 µM (≈ 0.247 µg/mL); MBC [5]: < 0.04 µM; Activity (J774 [6]): Non-toxic
COc1ccc([C@@H](C)NC(=O)c2cc([N+](=O)[O-])cc([N+](=O)[O-])c2)cc1	2.9 (≈ 1 µg/mL)	
CC[C@@H](NC(=O)c1cc([N+](=O)[O-])cc([N+](=O)[O-])c1)c1ccccc1	0.76 (≈ 0.25 µg/mL)	
CCC[C@@H](NC(=O)c1cc([N+](=O)[O-])cc([N+](=O)[O-])c1)c1ccccc1	2.91 (≈ 0.999 µg/mL)	
CC(C)c1ccc(NC(=O)c2cc([N+](=O)[O-])cc([N+](=O)[O-])c2)cc1	12.1 (≈ 4 µg/mL)	
O=C(NCCCCc1ccccc1)c1cc([N+](=O)[O-])cc([N+](=O)[O-])c1	0.35 (≈ 0.12 µg/mL)	
CC[C@@H](C)NC(=O)c1cc([N+](=O)[O-])cc([N+](=O)[O-])c1	1.87 (≈ 0.5 µg/mL)	
Cc1c([N+](=O)[O-])cc(C(=O)NCc2ccccc2)cc1[N+](=O)[O-]	0.38 (≈ 0.12 µg/mL)	
CCCCCCNC(=O)c1cc([N+](=O)[O-])cc([N+](=O)[O-])c1	1.69 (≈ 0.499 µg/mL)	
C[C@H](NC(=O)c1cc([N+](=O)[O-])cc([N+](=O)[O-])c1)c1ccc(F)cc1	3 (≈ 1 µg/mL)	
O=C(Nc1ccc(F)cc1)c1cc([N+](=O)[O-])cc([N+](=O)[O-])c1	> 1.63	
O=C(Nc1ccc(C(F)(F)F)cc1)c1cc([N+](=O)[O-])cc([N+](=O)[O-])c1	2.82 (≈ 1 µg/mL)	
O=C(NCCCc1ccccc1)c1cc([N+](=O)[O-])cc([N+](=O)[O-])c1	1.52 (≈ 0.501 µg/mL)	
CO[C@H]1/C=C/O[C@@]2(C)Oc3c(C)c(O)c4c(O)c(c(/C=N/N5CCN(C)CC5)c(O)c4c3C2=O)NC(=O)/C(C)=C\C=C\[C@H](C)[C@H](O)[C@@H](C)[C@@H](O)[C@@H](C)[C@H](OC(C)=O)[C@@H]1C [RIFAMPIN]	0.07 (≈ 0.0576 µg/mL)	
Cc1ccc(CCNC(=O)c2cc([N+](=O)[O-])cc([N+](=O)[O-])c2)cc1	1.52 (≈ 0.501 µg/mL)	
Cc1ccc([C@@H](C)NC(=O)c2cc([N+](=O)[O-])cc([N+](=O)[O-])c2)cc1	0.05 (≈ 0.0165 µg/mL)	selectivity ratio [2]: > 1330; IC50 (J774 [3]): > 60.8 µM; MIC [4]: 0.8 µM (≈ 0.263 µg/mL); MBC [5]: 0.2 µM (≈ 0.0659 µg/mL); Activity (J774 [6]): Non-toxic
Cc1c([N+](=O)[O-])cc(C(=O)N[C@@H](C)c2ccc(Cl)cc2)cc1[N+](=O)[O-]	> 5.51	
C[C@@H](NC(=O)c1cc([N+](=O)[O-])cc([N+](=O)[O-])c1)c1ccc(Cl)cc1	0.17 (≈ 0.0595 µg/mL)	
CC[C@H](NC(=O)c1cc([N+](=O)[O-])cc([N+](=O)[O-])c1)c1ccccc1	3.04 (≈ 1 µg/mL)	
Cc1c([N+](=O)[O-])cc(C(=O)N[C@H](C)c2ccc(Cl)cc2)cc1[N+](=O)[O-]	1.38 (≈ 0.502 µg/mL)	
CCCCC(CC)CNC(=O)c1cc([N+](=O)[O-])cc([N+](=O)[O-])c1 (stereo not given)	0.19 (≈ 0.0614 µg/mL)	
Cc1ccc([C@H](C)NC(=O)c2cc([N+](=O)[O-])cc([N+](=O)[O-])c2)cc1	0.76 (≈ 0.25 µg/mL)	
CCCCCCCCCCCCCCCCNC(=O)c1cc([N+](=O)[O-])cc([N+](=O)[O-])c1	0.57 (≈ 0.248 µg/mL)	
